Source: publication PMC9898036, “VIP152 is a selective CDK9 inhibitor with pre-clinical in vitro and in vivo efficacy in chronic lymphocytic leukemia” (Leukemia, 2022)
Like-named read-outs stand apart in the source and are kept apart here.

Tests used:
MEK6 = MEK6 (Homo sapiens, UniProt P52564); test: KINOMEscan: MEK6; type: binding; conditions: 1000 nM, read-out: Percent Control
Neuropeptide Y Y1 = Neuropeptide Y Y1 (Homo sapiens, UniProt P25929); test: Eurofins Diversity Panel; type: binding; conditions: hum, Conc. 10 μM
Opiate κ(OP2, KOP) = Opiate κ(OP2, KOP) (Homo sapiens, UniProt P41145); test: Eurofins Diversity Panel; type: binding; conditions: hum, Conc. 10 μM
HIPK4 = HIPK4 (Homo sapiens, UniProt Q8NE63); test: KINOMEscan: HIPK4; type: binding; conditions: 1000 nM, read-out: Percent Control
WEE2 = WEE2 (Homo sapiens, UniProt P0C1S8); test: KINOMEscan: WEE2; type: binding; conditions: 100 nM, read-out: Percent Control
EPHB3 = EPHB3 (Homo sapiens, UniProt P54753); test: KINOMEscan: EPHB3; type: binding; conditions: 1000 nM, read-out: Percent Control
MERTK = MERTK (Homo sapiens, UniProt Q12866); test: KINOMEscan: MERTK; type: binding; conditions: 1000 nM, read-out: Percent Control
IKK-epsilon = IKK-epsilon (Homo sapiens, UniProt Q14164); test: KINOMEscan: IKK-epsilon; type: binding; conditions: 1000 nM, read-out: Percent Control
MST4 = MST4 (Homo sapiens, UniProt Q9P289); test: KINOMEscan: MST4; type: binding; conditions: 1000 nM, read-out: Percent Control
IRAK1 = IRAK1 (Homo sapiens, UniProt P51617); test: KINOMEscan: IRAK1; type: binding
Description: (§1) The structure and synthesis of VIP152 were recently described by Lücking et al.. (Fig. 1A); however, the selectivity of the molecule in cellular systems has yet to be explored. […] We also performed this experiment at 1000 nM, where CDK9 was inhibited at 99%. […] We found a strong concordance between our data and those of Lücking when comparing the most inhibited kinases. Potential off-target effects of VIP152 were next tested in vitro at a concentration of 10 µM for off-target activity against a broad range of receptors, transporters, ion channels, and enzymes (n = 138) using the Eurofins Diversity Panel.
(§2) Kinomescan Kinase Profiling Assay
(§3) Kinomescan Assay was performed at DiscoverRX and described in Fabian, et al. 2005, Nat.
(§4) Biotechnol. In brief, kinases were produced and subsequently tagged with DNA for qPCR detection.
(§5) Streptavidin-coated magnetic beads were bound to biotinylated kinase ligands to serve as a solid support.
(§6) VIP152 was dissolved in DMSO and tested across a 10 serial threefold dilution set and compared to a test compound and a DMSO control. Kinases which were inhibited by VIP152 would not be bound to the solid-support resulting in decreased substrate for the qPCR reaction. Kinome map was produced via TreeSpot Analysis from DiscoverRX. […]
NanoBRETTM Target Engagement Assay Protocol […]
Complete 20X NanoBRET Tracer Reagent was prepared with Tracer Dilution Buffer and dispensed at a ratio of 1:20 Reagent to cells in the tube. The cell

ABL1 [1] = molecular target: ABL1 (Homo sapiens, UniProt P00519, Y253F); test: KINOMEscan: ABL1; type: binding; conditions: ABL1(Y253F)-phosphorylated, read-out: Percent Control
Description: as §1, §2, §3, §4, §5, §6

ABL1 [2] = molecular target: ABL1 (Homo sapiens, UniProt P00519); test: KINOMEscan: ABL1; type: binding; conditions: read-out: Percent Control; for remaining binding at 0.1 µM: 100 nM; for remaining binding at 1 µM: 1000 nM
Description: as §1, §2, §3, §4, §5, §6

ROCK1 = ROCK1 (Homo sapiens, UniProt Q13464); test: KINOMEscan: ROCK1; type: binding; conditions: 100 nM, read-out: Percent Control
MEK3 = MEK3 (Homo sapiens, UniProt P46734); test: KINOMEscan: MEK3; type: binding; conditions: 1000 nM, read-out: Percent Control
TNIK = TNIK (Homo sapiens, UniProt Q9UKE5); test: KINOMEscan: TNIK; type: binding; conditions: 100 nM, read-out: Percent Control
[3] = molecular target: JAK1(JH1domain-catalytic) (Homo sapiens, UniProt P23458); test: KINOMEscan: JAK1(JH1domain-catalytic); type: binding; conditions: 1000 nM, read-out: Percent Control
MARK2 = MARK2 (Homo sapiens, UniProt Q7KZI7); test: KINOMEscan: MARK2; type: binding; conditions: 1000 nM, read-out: Percent Control
CSNK1A1L = CSNK1A1L (Homo sapiens, UniProt Q8N752); test: KINOMEscan: CSNK1A1L; type: binding; conditions: 1000 nM, read-out: Percent Control
[4] = molecular target: Serotonin (5-Hydroxytryptamine) 5-HT3) (Homo sapiens, UniProt P46098); test: Eurofins Diversity Panel; type: binding; conditions: hum, Conc. 10 μM
MLK1 = MLK1 (Homo sapiens, UniProt P80192); test: KINOMEscan: MLK1; type: binding; conditions: 1000 nM, read-out: Percent Control
BRAF = BRAF (Homo sapiens, UniProt P15056); test: KINOMEscan: BRAF; type: binding; conditions: 1000 nM, read-out: Percent Control
MET(M1250T) = MET(M1250T) (Homo sapiens, UniProt P08581, M1250T); test: KINOMEscan: MET(M1250T); type: binding; conditions: 1000 nM, read-out: Percent Control
AAK1 = AAK1 (Homo sapiens, UniProt Q2M2I8); test: KINOMEscan: AAK1; type: binding; conditions: 1000 nM, read-out: Percent Control
IRAK4 = IRAK4 (Homo sapiens, UniProt Q9NWZ3); test: KINOMEscan: IRAK4; type: binding; conditions: 1000 nM, read-out: Percent Control
MEK1 = MEK1 (Homo sapiens, UniProt Q02750); test: KINOMEscan: MEK1; type: binding; conditions: 1000 nM, read-out: Percent Control
FER = FER (Homo sapiens, UniProt P16591); test: KINOMEscan: FER; type: binding; conditions: 1000 nM, read-out: Percent Control
ZAP70 = ZAP70 (Homo sapiens, UniProt P43403); test: KINOMEscan: ZAP70; type: binding; conditions: 100 nM, read-out: Percent Control
LOK = LOK (Homo sapiens, UniProt O94804); test: KINOMEscan: LOK; type: binding; conditions: 1000 nM, read-out: Percent Control
Endothelin ETA = Endothelin ETA (Homo sapiens, UniProt P25101); test: Eurofins Diversity Panel; type: binding; conditions: hum, Conc. 10 μM
BMPR1A = BMPR1A (Homo sapiens, UniProt P36894); test: KINOMEscan: BMPR1A; type: binding; conditions: 1000 nM, read-out: Percent Control
[5] = molecular target: CDK9 in complex with Cyclin T1 (Homo sapiens, UniProt P50750); test: NanoBRET target engagement assay (HEK293); type: cell-based

Sequence of IRAK1 (P51617 whole entry): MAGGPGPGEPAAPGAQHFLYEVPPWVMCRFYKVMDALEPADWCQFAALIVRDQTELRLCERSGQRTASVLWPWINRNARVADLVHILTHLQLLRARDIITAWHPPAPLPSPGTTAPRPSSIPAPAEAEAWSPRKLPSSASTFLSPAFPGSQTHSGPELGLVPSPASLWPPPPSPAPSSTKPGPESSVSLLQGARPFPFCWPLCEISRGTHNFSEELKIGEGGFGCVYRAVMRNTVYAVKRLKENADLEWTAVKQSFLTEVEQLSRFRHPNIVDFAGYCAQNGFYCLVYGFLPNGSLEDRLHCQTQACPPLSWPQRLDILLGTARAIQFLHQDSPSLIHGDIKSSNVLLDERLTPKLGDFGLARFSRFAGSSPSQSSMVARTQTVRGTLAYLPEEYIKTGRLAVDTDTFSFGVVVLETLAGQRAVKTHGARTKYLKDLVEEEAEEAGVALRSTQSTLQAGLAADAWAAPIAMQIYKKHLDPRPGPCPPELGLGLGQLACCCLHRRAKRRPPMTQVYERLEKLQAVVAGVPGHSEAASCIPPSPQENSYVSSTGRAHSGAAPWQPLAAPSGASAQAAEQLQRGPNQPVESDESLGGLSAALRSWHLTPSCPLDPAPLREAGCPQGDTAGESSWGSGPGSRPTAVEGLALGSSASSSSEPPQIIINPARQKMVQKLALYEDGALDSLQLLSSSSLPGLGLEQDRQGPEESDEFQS
Sequence of MARK2 (Q7KZI7 whole entry): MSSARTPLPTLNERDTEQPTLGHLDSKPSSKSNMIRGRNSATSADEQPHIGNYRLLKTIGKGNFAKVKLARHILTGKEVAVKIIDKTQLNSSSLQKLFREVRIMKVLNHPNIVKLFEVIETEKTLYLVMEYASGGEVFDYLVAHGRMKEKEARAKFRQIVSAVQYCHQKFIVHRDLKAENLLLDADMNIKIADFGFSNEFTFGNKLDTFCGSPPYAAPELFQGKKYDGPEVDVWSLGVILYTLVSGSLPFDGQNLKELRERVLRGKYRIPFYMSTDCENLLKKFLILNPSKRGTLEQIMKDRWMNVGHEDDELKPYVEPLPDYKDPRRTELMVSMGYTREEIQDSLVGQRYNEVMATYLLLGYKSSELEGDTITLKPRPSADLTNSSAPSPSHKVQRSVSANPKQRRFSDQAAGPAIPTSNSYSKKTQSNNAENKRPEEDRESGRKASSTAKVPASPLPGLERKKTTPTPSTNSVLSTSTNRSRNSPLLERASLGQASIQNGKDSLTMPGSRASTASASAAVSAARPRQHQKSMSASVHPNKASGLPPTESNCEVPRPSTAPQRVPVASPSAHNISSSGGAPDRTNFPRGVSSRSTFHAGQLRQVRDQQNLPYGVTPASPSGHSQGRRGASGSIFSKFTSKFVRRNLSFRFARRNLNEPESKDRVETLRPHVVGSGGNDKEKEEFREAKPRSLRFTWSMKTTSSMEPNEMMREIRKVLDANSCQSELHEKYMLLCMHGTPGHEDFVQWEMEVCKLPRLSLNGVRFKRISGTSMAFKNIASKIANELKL
Sequence of MEK1 (Q02750 whole entry): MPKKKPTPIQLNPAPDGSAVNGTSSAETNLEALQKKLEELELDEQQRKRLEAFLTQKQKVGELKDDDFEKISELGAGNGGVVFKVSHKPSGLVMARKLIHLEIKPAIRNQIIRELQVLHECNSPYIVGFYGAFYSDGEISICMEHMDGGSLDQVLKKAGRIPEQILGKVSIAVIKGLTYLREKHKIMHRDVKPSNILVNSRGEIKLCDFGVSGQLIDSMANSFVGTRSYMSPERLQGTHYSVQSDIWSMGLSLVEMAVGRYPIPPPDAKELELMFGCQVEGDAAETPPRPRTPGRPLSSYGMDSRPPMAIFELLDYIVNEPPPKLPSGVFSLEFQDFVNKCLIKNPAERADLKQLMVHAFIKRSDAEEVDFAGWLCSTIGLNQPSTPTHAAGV
Sequence of JAK1(JH1domain-catalytic) (P23458 875-1154 limits assumed): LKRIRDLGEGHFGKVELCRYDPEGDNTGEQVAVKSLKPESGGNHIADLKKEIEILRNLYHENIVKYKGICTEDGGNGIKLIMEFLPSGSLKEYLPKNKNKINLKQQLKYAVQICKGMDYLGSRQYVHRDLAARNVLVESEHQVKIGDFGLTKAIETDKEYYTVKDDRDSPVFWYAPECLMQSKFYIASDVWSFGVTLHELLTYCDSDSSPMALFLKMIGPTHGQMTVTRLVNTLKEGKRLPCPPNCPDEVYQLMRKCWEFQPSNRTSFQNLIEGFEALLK
Sequence of HIPK4 (Q8NE63 whole entry): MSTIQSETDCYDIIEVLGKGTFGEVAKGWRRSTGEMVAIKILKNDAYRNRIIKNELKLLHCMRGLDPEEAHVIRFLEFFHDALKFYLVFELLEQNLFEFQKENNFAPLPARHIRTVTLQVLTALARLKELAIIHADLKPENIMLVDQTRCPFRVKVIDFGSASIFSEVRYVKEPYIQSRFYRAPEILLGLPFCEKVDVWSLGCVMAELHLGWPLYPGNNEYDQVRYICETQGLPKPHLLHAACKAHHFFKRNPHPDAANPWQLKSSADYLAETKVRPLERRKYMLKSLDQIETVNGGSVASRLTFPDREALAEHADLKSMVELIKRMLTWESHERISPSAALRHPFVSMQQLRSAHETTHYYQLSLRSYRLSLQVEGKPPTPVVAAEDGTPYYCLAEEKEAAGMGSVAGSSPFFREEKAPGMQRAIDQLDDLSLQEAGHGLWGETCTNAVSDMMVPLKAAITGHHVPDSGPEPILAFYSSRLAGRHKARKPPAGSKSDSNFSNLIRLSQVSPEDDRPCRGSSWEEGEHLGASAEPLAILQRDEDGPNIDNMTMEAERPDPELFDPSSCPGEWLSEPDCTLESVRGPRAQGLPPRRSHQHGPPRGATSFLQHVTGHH
Sequence of Endothelin ETA (P25101 21-427): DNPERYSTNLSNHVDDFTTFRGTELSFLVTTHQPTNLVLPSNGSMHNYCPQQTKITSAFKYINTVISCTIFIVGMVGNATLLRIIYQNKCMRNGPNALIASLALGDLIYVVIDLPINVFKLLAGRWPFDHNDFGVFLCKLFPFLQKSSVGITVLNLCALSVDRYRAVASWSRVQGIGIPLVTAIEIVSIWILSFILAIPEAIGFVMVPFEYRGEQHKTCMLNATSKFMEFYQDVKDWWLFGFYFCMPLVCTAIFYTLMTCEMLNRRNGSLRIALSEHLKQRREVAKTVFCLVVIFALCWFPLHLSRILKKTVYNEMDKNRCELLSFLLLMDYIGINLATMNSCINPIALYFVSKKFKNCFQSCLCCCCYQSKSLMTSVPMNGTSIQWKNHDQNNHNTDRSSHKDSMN
Sequence of EPHB3 (P54753 34-998): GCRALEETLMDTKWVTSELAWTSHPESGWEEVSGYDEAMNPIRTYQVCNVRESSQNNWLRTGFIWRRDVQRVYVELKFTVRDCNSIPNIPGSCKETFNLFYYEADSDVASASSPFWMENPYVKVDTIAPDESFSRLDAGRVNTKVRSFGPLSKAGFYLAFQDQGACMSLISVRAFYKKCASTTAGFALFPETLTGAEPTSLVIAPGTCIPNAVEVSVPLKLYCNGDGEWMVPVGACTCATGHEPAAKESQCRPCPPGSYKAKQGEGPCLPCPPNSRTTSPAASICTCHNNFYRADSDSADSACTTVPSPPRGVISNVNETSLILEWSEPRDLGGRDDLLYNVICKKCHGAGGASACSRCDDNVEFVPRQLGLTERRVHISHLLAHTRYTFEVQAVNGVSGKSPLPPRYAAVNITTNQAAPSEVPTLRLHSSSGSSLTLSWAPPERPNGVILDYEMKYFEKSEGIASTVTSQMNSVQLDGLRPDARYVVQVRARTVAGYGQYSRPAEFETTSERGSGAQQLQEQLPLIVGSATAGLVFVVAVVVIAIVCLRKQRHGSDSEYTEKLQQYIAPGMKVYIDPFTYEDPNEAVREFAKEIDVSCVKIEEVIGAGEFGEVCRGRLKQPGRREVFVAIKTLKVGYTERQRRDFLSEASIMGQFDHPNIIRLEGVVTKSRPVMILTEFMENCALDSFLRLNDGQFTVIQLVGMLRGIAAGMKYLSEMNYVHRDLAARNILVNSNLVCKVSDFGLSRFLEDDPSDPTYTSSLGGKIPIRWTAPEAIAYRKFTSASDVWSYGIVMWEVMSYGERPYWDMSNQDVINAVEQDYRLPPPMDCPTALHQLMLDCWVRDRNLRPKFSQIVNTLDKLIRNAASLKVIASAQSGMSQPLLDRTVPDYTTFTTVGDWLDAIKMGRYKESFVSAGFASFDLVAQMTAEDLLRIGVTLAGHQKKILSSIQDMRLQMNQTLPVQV
Sequence of CSNK1A1L (Q8N752 whole entry): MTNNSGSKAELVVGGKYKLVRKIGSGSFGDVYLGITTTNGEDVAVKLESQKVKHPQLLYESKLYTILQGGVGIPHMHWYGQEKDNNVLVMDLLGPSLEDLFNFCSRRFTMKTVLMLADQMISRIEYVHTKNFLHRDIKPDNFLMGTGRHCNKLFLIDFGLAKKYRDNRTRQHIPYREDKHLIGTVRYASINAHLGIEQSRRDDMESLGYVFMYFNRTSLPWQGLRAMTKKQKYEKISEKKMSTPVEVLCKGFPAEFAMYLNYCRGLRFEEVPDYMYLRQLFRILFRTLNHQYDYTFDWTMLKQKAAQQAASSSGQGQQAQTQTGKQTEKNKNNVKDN
Sequence of MEK3 (P46734 whole entry): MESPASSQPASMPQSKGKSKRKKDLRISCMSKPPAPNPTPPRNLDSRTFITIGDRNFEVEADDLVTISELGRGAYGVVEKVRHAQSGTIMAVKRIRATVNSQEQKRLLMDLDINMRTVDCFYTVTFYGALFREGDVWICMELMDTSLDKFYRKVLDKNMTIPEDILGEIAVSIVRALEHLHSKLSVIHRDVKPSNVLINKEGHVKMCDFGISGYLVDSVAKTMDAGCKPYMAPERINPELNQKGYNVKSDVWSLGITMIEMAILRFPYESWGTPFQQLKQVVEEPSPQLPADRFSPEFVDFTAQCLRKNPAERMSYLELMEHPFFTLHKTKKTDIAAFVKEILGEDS

## COc1cc(F)ccc1-c1cc(Nc2cc(CS(C)(=N)=O)ccn2)ncc1F (stereo not shown) [VIP152]
MEK6
  remaining binding at 1 µM: 94%
Neuropeptide Y Y1
  inhibition at 10 µM: -3%
Opiate κ(OP2, KOP)
  inhibition at 10 µM: 8%
HIPK4
  remaining binding at 1 µM: 68%
WEE2
  remaining binding at 0.1 µM: 100%
EPHB3
  remaining binding at 1 µM: 100%
MERTK
  remaining binding at 1 µM: 58%
IKK-epsilon
  remaining binding at 1 µM: 51%
MST4
  remaining binding at 1 µM: 89%
IRAK1; 1000 nM
  inhibition at 1 µM: 98.4%
IRAK1; IRAK1, 100 nM, read-out: Percent Control
  remaining binding at 0.1 µM: 59%
IRAK1; IRAK1, 1000 nM, read-out: Percent Control
  remaining binding at 1 µM: 1.6%
ABL1 [1]; 100 nM
  remaining binding at 0.1 µM: 100%
ABL1 [1]; 1000 nM
  remaining binding at 1 µM: 45%
ABL1 [2]; ABL1-nonphosphorylated
  remaining binding at 0.1 µM: 64%
  remaining binding at 1 µM: 21%
ABL1 [2]; ABL1-phosphorylated
  remaining binding at 0.1 µM: 73%
  remaining binding at 1 µM: 54%
ROCK1
  remaining binding at 0.1 µM: 100%
MEK3
  remaining binding at 1 µM: 84%
TNIK
  remaining binding at 0.1 µM: 100%
[3]
  remaining binding at 1 µM: 96%
MARK2
  remaining binding at 1 µM: 81%
CSNK1A1L
  remaining binding at 1 µM: 92%
[4]
  inhibition at 10 µM: -3%
MLK1
  remaining binding at 1 µM: 76%
BRAF
  remaining binding at 1 µM: 55%
MET(M1250T)
  remaining binding at 1 µM: 27%
AAK1
  remaining binding at 1 µM: 47%
IRAK4
  remaining binding at 1 µM: 78%
MEK1
  remaining binding at 1 µM: 85%
FER
  remaining binding at 1 µM: 97%
ZAP70
  remaining binding at 0.1 µM: 99%
LOK
  remaining binding at 1 µM: 53%
Endothelin ETA
  inhibition at 10 µM: 13%
BMPR1A
  remaining binding at 1 µM: 97%
[5]
  potency versus the other inhibitors: higher potency
